Measured values as given in ChEMBL document CHEMBL1201862, “PubChem BioAssay data set” (2004).
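Cells were grown in 96-well plates and exposed to each compound for 48 hours at five concentrations; endpoints were interpolated linearly between bracketing concentrations, or set to the highest concentration if not reached. GI50 = concentration required for 50% inhibition of growth.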 Activity calls are given as the source filed them. Cut-off read from the data, not from the text of the source: active = GI50 up to about 1.1 µM and inactive = higher.

Columns and labels:
Test in all cases: inhibition of tumour cell growth, NCI panel, 48 h
[1] = system: SF-295
[2] = system: KM12
[3] = system: PC-3
[4] = system: NCI-H23
[5] = system: EKVX
[6] = system: CCRF-CEM
[7] = system: HOP-92
[8] = system: HCT-15
[9] = system: COLO 205
[10] = system: SK-MEL-2
[11] = system: SK-OV-3
[12] = system: MOLT-4
[13] = system: HT-29
[14] = system: T47D
[15] = system: OVCAR-8
[16] = system: SK-MEL-28
[17] = system: IGROV-1
[18] = system: NCI-H522
[19] = system: SN12C

| Compound | GI50 [1] | GI50 [2] | GI50 [3] | GI50 [4] | GI50 [5] | GI50 [6] | GI50 [7] | GI50 [8] [µM] | GI50 [9] | GI50 [10] | GI50 [11] | GI50 [12] | GI50 [13] | GI50 [14] | GI50 [15] | GI50 [16] | GI50 [17] | GI50 [18] | GI50 [19] |
| --- | --- | --- | --- | --- | --- | --- | --- | --- | --- | --- | --- | --- | --- | --- | --- | --- | --- | --- | --- |
| CCOC(=O)c1nc2ccc(C(F)(F)F)cc2nc1Oc1ccc(C(=O)OC)cc1 | 54.8 µM (inactive) | 56.4 µM (inactive) | 32.5 µM (inactive) | 97.5 µM (inactive) | > 100 µM (inactive) | > 100 µM (inactive) | 43.2 µM (inactive) | > 100 | > 100 µM (inactive) | 32.1 µM (inactive) | > 100 µM (inactive) | > 100 µM (inactive) | 81.7 µM (inactive) | > 100 µM (inactive) | > 100 µM (inactive) | 86.1 µM (inactive) | 59.4 µM (inactive) | – | – |
| N/C(=N\c1ccc(Cl)cc1)NS(=O)(=O)c1ccc(-c2ccccn2)s1 | 17.5 µM (inactive) | 29.7 µM (inactive) | 14.2 µM (inactive) | 15.9 µM (inactive) | 12.1 µM (inactive) | – | 13 µM (inactive) | 17.5 | 17.4 µM (inactive) | 14.1 µM (inactive) | 22.1 µM (inactive) | 2.41 µM (inactive) | 18.3 µM (inactive) | 12.8 µM (inactive) | 19 µM (inactive) | 19.4 µM (inactive) | 16.1 µM (inactive) | 9.27 µM (inactive) | 15.5 µM (inactive) |
| Cc1cc(S(=O)(=O)Nc2nc(N)n[nH]2)c(S)cc1Cl | > 10 µM (inactive) | > 10 µM (inactive) | > 10 µM (inactive) | > 10 µM (inactive) | > 10 µM (inactive) | > 10 µM (inactive) | – | > 10 | > 10 µM (inactive) | > 10 µM (inactive) | > 10 µM (inactive) | > 10 µM (inactive) | > 10 µM (inactive) | > 10 µM (inactive) | > 10 µM (inactive) | > 10 µM (inactive) | > 10 µM (inactive) | > 10 µM (inactive) | > 10 µM (inactive) |
| COc1ccc(C2C3=C(N=C4SC(C(C)=O)=C(C)N42)c2ccccc2CC3)cc1 (stereo unspecified) | > 100 µM (inactive) | 38.6 µM (inactive) | > 100 µM (inactive) | 80 µM (inactive) | – | 28.8 µM (inactive) | > 100 µM (inactive) | > 100 | > 100 µM (inactive) | > 100 µM (inactive) | > 100 µM (inactive) | – | 6.52 µM (inactive) | 31.8 µM (inactive) | > 100 µM (inactive) | > 100 µM (inactive) | 10.1 µM (inactive) | – | > 100 µM (inactive) |
| O=C(NN=C(c1ccccc1)c1ccccc1)/C(O)=C/C(=O)c1ccc(Cl)cc1 | 34.7 µM (inactive) | 45 µM (inactive) | 27.1 µM (inactive) | 23.2 µM (inactive) | 30.7 µM (inactive) | 24.4 µM (inactive) | – | 24.7 | 19.9 µM (inactive) | 29 µM (inactive) | 73.3 µM (inactive) | 35 µM (inactive) | 44.3 µM (inactive) | 30.2 µM (inactive) | 30.1 µM (inactive) | – | 27.7 µM (inactive) | 13.5 µM (inactive) | 27.9 µM (inactive) |
| CC/C(=N\NC(=O)c1cccnc1)c1ccc2c(c1)OCCO2 | > 100 µM (inactive) | 96.6 µM (inactive) | > 100 µM (inactive) | > 100 µM (inactive) | 64.1 µM (inactive) | > 100 µM (inactive) | – | > 100 | > 100 µM (inactive) | > 100 µM (inactive) | > 100 µM (inactive) | > 100 µM (inactive) | > 100 µM (inactive) | > 100 µM (inactive) | > 100 µM (inactive) | > 100 µM (inactive) | > 100 µM (inactive) | 29.1 µM (inactive) | > 100 µM (inactive) |
| O=C(Oc1ccc(C(c2c(O)c3ccccc3oc2=O)c2c(O)c3ccccc3oc2=O)cc1)c1ccc(C(=O)c2ccccc2)cc1 | 22 µM (inactive) | 17.1 µM (inactive) | 18.7 µM (inactive) | 18.5 µM (inactive) | 16.7 µM (inactive) | 22.6 µM (inactive) | – | 37.2 | 29.2 µM (inactive) | 17.8 µM (inactive) | 16.7 µM (inactive) | 20.7 µM (inactive) | 17.7 µM (inactive) | 34.5 µM (inactive) | 16.6 µM (inactive) | 13.6 µM (inactive) | 21.4 µM (inactive) | 15.4 µM (inactive) | 43 µM (inactive) |
| CCN(CC)C(=O)N[C@@H](CC(C)C)C(=O)NC | > 100 µM (inactive) | > 100 µM (inactive) | 73.6 µM (inactive) | > 100 µM (inactive) | > 100 µM (inactive) | > 100 µM (inactive) | – | > 100 | > 100 µM (inactive) | > 100 µM (inactive) | > 100 µM (inactive) | > 100 µM (inactive) | > 100 µM (inactive) | > 100 µM (inactive) | > 100 µM (inactive) | > 100 µM (inactive) | > 100 µM (inactive) | > 100 µM (inactive) | > 100 µM (inactive) |
| Cc1ccccc1OC(C)C(=O)NN1C(=O)CSC1c1ccc(Cl)cc1 (stereo unspecified) | 25.6 µM (inactive) | 42.2 µM (inactive) | 35.7 µM (inactive) | 56.1 µM (inactive) | 37.9 µM (inactive) | – | 31 µM (inactive) | 46.6 | > 56.1 µM (inactive) | > 53.7 µM (inactive) | 47.1 µM (inactive) | 22.1 µM (inactive) | 18.4 µM (inactive) | 51.1 µM (inactive) | 52 µM (inactive) | 73.3 µM (inactive) | 38.5 µM (inactive) | 4.16 µM (inactive) | 17.5 µM (inactive) |
| COC(=O)CCCC1(CCCC(=O)OC)CCCCCCCCC(CCCC(=O)OC)(CCCC(=O)OC)C(=O)C1=O | > 100 µM (inactive) | 38.8 µM (inactive) | 21.2 µM (inactive) | 18.6 µM (inactive) | > 100 µM (inactive) | – | 20.6 µM (inactive) | > 100 | > 100 µM (inactive) | 28.9 µM (inactive) | > 100 µM (inactive) | – | 43.5 µM (inactive) | 30.1 µM (inactive) | 50.7 µM (inactive) | > 100 µM (inactive) | 18.4 µM (inactive) | 2.24 µM (inactive) | > 100 µM (inactive) |
| CCOP(=O)(C=C=C(C)C)OCC | > 100 µM (inactive) | > 100 µM (inactive) | > 100 µM (inactive) | > 100 µM (inactive) | > 100 µM (inactive) | – | > 100 µM (inactive) | > 100 | > 100 µM (inactive) | > 100 µM (inactive) | > 100 µM (inactive) | – | > 100 µM (inactive) | > 100 µM (inactive) | > 100 µM (inactive) | > 100 µM (inactive) | > 100 µM (inactive) | 36.4 µM (inactive) | > 100 µM (inactive) |
| O=C(CNCc1ccccc1)Oc1c(Cl)c(Cl)c(Cl)c(Cl)c1Cl | 27.2 µM (inactive) | 21.8 µM (inactive) | 22.1 µM (inactive) | > 100 µM (inactive) | 22.4 µM (inactive) | – | – | 25.4 | 25 µM (inactive) | 29.2 µM (inactive) | 47 µM (inactive) | 22.3 µM (inactive) | 32.7 µM (inactive) | 25.7 µM (inactive) | 21.4 µM (inactive) | 38.5 µM (inactive) | 33.1 µM (inactive) | 25.3 µM (inactive) | 31.2 µM (inactive) |
| S=c1[nH]nc(Cn2c3ccc(Br)cc3c3nc4ccccc4nc32)n1C1CCCCC1 | 16.7 µM (inactive) | 32.7 µM (inactive) | 20.4 µM (inactive) | 13.8 µM (inactive) | 35 µM (inactive) | 25.6 µM (inactive) | – | 22 | – | 23.1 µM (inactive) | 26.5 µM (inactive) | – | 16.1 µM (inactive) | 19.4 µM (inactive) | 22.6 µM (inactive) | 9.44 µM (inactive) | 21.4 µM (inactive) | 21.3 µM (inactive) | 25 µM (inactive) |
| CN1CN(c2ccccc2)C2(CCN(Cc3nc4ccccc4s3)CC2)C1=O | 17.9 µM (inactive) | – | 14.2 µM (inactive) | 18.1 µM (inactive) | 20.9 µM (inactive) | 17.3 µM (inactive) | 15 µM (inactive) | 18.8 | 18.1 µM (inactive) | 18.6 µM (inactive) | 22.2 µM (inactive) | 15.1 µM (inactive) | 17 µM (inactive) | 16.2 µM (inactive) | 14.4 µM (inactive) | 17.3 µM (inactive) | 15.7 µM (inactive) | – | 17.5 µM (inactive) |
| C/C(=N\O)C1CC2C=C(C#N)C1N(Cc1ccccc1)C2 (stereo unspecified) | > 100 µM (inactive) | > 100 µM (inactive) | > 100 µM (inactive) | > 100 µM (inactive) | > 100 µM (inactive) | > 100 µM (inactive) | > 100 µM (inactive) | > 100 | > 100 µM (inactive) | – | > 100 µM (inactive) | > 100 µM (inactive) | > 100 µM (inactive) | > 100 µM (inactive) | 45.3 µM (inactive) | > 100 µM (inactive) | – | – | > 100 µM (inactive) |
| O=c1cc(N2CCOCC2)[nH]c(=O)n1-c1ccc(F)cc1 | > 100 µM (inactive) | > 100 µM (inactive) | > 100 µM (inactive) | > 100 µM (inactive) | > 100 µM (inactive) | > 100 µM (inactive) | – | > 100 | > 100 µM (inactive) | > 100 µM (inactive) | > 100 µM (inactive) | > 100 µM (inactive) | > 100 µM (inactive) | > 100 µM (inactive) | > 100 µM (inactive) | > 100 µM (inactive) | > 100 µM (inactive) | > 100 µM (inactive) | > 100 µM (inactive) |
